Source: publication PMC5427942, “Methionine aminopeptidase 2 is a key regulator of apoptotic like cell death in Leishmania donovani” (Scientific Reports, 2017)

B1: methionine aminopeptidase 2 (LdMAP2) (Leishmania donovani) (protein)
chain: MPPKMSAKNKQQPKQQGGNKKGKGSSQDGDDFDAMLAAAVNASKADAAKNHSNNHQGKRSSNGNGTAPASRSLAADEPVVPSSADHPENPYPKTADGYPRQTWPEPTVLVSKQFAPGQFPAGEIVDHPGEMNNFRRSSEEKRALARASEQQVQEMREAAEVHRQVRTWAQSWIKPGLSLMLMTDRIEKKLNELIGKDGILRGQAFPTGCSLNHVAAHYTPNTGDEKVVLAYDDVMKVDFGTHINGRIIDCAWTVAFNPMFDPLLQAVKEATYEGIKQAGIDVRLGDIGAAIEEVMESHEVEINGKVHQVKSIRNLSGHNIAPYIIHSGKSVPIVKGGEQTKMEEGEVFAIETFGSTGRGFVNEDLECSHYMMRPGAEVMQLRSEKAQQLLKHIHKSYSTLAFCRKWLDRDGFDRHLMNLNRLVDEGAVNKYPPLVDVKGSYTAQYEHTIYLGPTAKEILSKGSDY

Tests used:
[1] = biological target: T1, methionine aminopeptidase 2 (LdMAP2) (Leishmania donovani, UniProt A0A3S7WWI2); assay: fluorogenic Met-AMC hydrolysis assay, Lineweaver-Burk plot, single inhibitor concentration ([…]); type: biochemical
T1 construct: gene LdCL_210014600

purified protein = substrate: CSCC[C@H](N)C(=O)Nc1ccc2c(C)cc(=O)oc2c1; assay: purified protein; conditions: divalent metal ion ([…] NiSO4 in assay)

Molecule | Ki [1] | Km (purified protein)
CO[C@@H]1[C@H](OC(=O)NC(=O)CCl)CC[C@]2(CO2)[C@H]1[C@@]1(C)O[C@@H]1CC=C(C)C [TNP-470, 5-methoxy-4-(2-methyl-3-(3-methyl-2-butenyl)oxiranyl)-1-oxaspiro(2,5)oct-6-yl (chloroacetyl) carbamate] | 13.5 nM | 
B1 |  | 200 µM
